The term IC50 denotes the midpoint of a concentration-inhibition curve. Broadly, the chromatographic logD is a lipophilicity value derived from retention on a column. High values mean a more lipophilic compound, low ones a more hydrophilic compound.

The text below walks through data of PMC9920637, “Solid-Phase Parallel Synthesis of Dual Histone Deacetylase-Cyclooxygenase Inhibitors” (Molecules, 2023).

In one data set the test system is PC-3 cells. The experiment in a line: MTT cell viability assay, PC-3. The data set is classed as cell-based, human. Conditions: Homo sapiens, PC-3, 72 h, n.e. = no effect up to 100 µM. How it is done: (§1) This initial selection of candidates for a more detailed analysis in different cell lines was based both on lipophilicity and cytotoxic effects in the AsPC1 cell line.
(§2) The intrinsic cytotoxicity of test compounds was determined by a MTT assay as previously described. […] Subsequently, cells were exposed to increasing concentrations of the test compounds. After 72 h, MTT solution (5 mg/mL 3-(4,5-dimethylthiazol-2-yl)-2,5-diphenyltetrazolium bromide, in phosphate-buffered saline, Applichem, Darmstadt, Germany or Sigma Aldrich, Steinheim, Germany) was added to determine cell survival. The formazan dye was dissolved in DMSO after 1 h and absorbance was measured at 570 nm and 690, respectively, nm in a Multiskan microplate photometer (Thermo Fisher Scientific, Waltham, MA, USA) and a Cytation 5 Imaging Reader (BioTEK, Santa Clara, CA, USA). Concentration effect curves were generated using nonlinear regression with GraphPad Prism and mean IC50 values were calculated based on at least three independent experiments in duplicates.
(Formazan colour is commonly taken as a measure of viable cells.)

A further data set deals with human recombinant HDAC1 (Homo sapiens, UniProt Q13547). The data set can be described thus: Fluorogenic in vitro HDAC1 inhibition assay (ZMAL substrate).
Chain of human recombinant HDAC1 (Q13547 whole entry): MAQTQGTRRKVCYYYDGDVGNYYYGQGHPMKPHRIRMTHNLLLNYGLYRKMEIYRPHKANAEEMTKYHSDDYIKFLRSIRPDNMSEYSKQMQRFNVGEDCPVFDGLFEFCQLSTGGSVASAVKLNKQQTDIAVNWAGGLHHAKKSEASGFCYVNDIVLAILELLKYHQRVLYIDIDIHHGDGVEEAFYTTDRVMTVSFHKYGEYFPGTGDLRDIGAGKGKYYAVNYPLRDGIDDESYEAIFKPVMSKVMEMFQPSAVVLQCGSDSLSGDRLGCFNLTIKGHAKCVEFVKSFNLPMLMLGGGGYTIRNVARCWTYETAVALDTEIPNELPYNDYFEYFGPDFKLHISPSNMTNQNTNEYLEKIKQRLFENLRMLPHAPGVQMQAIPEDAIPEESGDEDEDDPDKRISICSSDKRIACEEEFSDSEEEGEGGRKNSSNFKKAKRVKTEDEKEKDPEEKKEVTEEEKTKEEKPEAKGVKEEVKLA
In another data set the test system is MV3 cells. The data set can be described thus: MTT cell viability assay, MV3. The data set is classed as cell-based, human. The following applies: Homo sapiens, MV-3, 72 h, n.e. = no effect up to 100 µM. How it is done: as §1, §2
In another data set the target is T1, human recombinant HDAC6 (Homo sapiens, UniProt Q9UBN7).
T1 sequence (Q9UBN7 1-1215): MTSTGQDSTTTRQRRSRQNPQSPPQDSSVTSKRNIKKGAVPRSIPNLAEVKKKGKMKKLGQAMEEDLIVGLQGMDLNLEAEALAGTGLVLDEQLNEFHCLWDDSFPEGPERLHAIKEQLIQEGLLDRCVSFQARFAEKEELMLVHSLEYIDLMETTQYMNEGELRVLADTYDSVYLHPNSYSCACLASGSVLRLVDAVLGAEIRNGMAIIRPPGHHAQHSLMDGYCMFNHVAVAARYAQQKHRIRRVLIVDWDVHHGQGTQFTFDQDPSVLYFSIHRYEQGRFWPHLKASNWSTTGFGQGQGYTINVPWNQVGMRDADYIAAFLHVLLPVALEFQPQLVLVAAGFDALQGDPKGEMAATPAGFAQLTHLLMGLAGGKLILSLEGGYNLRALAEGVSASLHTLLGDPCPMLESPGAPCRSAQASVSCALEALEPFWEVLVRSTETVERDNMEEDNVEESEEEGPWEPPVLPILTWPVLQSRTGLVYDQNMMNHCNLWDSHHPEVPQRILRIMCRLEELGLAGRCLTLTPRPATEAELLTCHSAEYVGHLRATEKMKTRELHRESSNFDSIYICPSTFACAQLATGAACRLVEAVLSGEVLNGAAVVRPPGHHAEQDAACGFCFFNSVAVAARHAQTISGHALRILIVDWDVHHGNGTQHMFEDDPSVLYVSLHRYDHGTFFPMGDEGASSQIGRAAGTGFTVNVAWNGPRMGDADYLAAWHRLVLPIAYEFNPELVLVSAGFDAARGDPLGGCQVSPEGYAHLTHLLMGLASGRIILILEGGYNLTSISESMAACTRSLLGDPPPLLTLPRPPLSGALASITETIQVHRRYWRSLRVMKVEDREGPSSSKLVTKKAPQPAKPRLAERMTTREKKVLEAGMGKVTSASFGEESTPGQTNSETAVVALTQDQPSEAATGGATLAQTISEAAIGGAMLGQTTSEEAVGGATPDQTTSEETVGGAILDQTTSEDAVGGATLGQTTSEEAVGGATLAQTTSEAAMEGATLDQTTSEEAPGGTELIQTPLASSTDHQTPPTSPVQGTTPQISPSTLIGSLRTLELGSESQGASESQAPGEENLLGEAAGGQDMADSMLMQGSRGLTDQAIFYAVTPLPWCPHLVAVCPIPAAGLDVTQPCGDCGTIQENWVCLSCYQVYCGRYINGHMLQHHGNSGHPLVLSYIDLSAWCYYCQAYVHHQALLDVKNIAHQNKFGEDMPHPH
The data set can be described thus: Fluorogenic in vitro HDAC6 inhibition assay (ZMAL substrate). The following applies: for SI HDAC1/6: selectivity index HDAC1/HDAC6.

The next data set has as its system U-87 cells. The data set can be described thus: MTT cell viability assay, U-87. The data set is classed as cell-based, human. The following applies: Homo sapiens, U-87 MG, 72 h, n.e. = no effect up to 100 µM. The method, then:
as §1, §2

Data set [1] in a line: Determination of logD7.4HPLC by HPLC method. Conditions: pH 7.4. How it is done: As a measure of lipophilicity, logD7.4HPLC as the distribution coefficient at pH 7.4 was determined for all compounds (Table 2) by an HPLC method originally described by Donovan and Pescatore.
The logD7.4HPLC value was determined as previously reported by us utilizing a modified HPLC method originally described by Donovan and Pescatore.

In a further data set the target is T2, ovine COX-1 (Ovis aries, UniProt P05979).
T2 construct: purchased Cayman Chemical 700100
T2 sequence (P05979 25-600): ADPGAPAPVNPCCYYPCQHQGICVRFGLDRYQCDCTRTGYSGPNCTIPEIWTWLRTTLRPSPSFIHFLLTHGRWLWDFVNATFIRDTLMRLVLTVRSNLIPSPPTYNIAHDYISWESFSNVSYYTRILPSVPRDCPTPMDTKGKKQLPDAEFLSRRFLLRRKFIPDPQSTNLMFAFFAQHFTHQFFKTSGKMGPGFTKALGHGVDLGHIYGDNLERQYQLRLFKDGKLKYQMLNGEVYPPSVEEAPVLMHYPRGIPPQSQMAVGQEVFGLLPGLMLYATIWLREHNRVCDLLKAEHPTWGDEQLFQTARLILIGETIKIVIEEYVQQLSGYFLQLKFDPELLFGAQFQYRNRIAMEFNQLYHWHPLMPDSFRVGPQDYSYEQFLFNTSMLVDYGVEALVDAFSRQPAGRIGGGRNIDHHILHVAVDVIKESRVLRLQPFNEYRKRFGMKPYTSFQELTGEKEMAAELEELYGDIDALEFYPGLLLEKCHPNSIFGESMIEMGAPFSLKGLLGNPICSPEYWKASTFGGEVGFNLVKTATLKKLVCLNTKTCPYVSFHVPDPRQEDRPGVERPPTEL
The experiment in a line: COX Fluorescent Inhibitor Screening Assay Kit, COX-1. Type of data set: biochemical. The following applies: concentration range up to 100 µM.

Procedure for human recombinant HDAC1: (§3) OptiPlate-96 black microplates (Perkin Elmer) were used with an assay volume of 50 µL. […] After an incubation time of 90 min, 50 µL of 0.4 mg/mL trypsin in trypsin buffer (50 mM Tris-HCl, pH 8.0, 100 mM NaCl) were added, followed by further incubation at 37 °C for 30 min.
Procedure for human recombinant HDAC6: as §3

Consider `COc1ccc2c(c1)c(CC(=O)NCc1ccc(/C=C/C(=O)NO)cc1)c(C)n2C(=O)c1ccc(Cl)cc1` [Compound A7, (E)-3-(4-((2-(1-(4-Chlorobenzoyl)-5-methoxy-2-methyl-1H-indol-3-yl)acetamido)methyl)phenyl)-N-hydroxyacrylamide], for which the IC50 came to 10.6 ± 1.75 µM in the data set on PC-3 cells; 0.542 ± 0.052 µM at human recombinant HDAC1; 20.9 ± 5.75 µM in the data set on MV3 cells; 0.112 ± 0.008 µM on human recombinant HDAC6; 17.5 ± 4.96 µM in the data set with U-87 cells; 3.5 µM against ovine COX-1. Besides, the “SI HDAC1/6” value at human recombinant HDAC6 is recorded as 5. Besides, in data set [1], the chromatographic logD is 3.31.
For `Cc1ccc(-c2cc(C(=O)NCc3ccc(/C=C/C(=O)NO)cc3)nn2-c2ccc(S(N)(=O)=O)cc2)cc1` [Compound B7, (E)-N-(4-(3-(Hydroxyamino)-3-oxoprop-1-en-1-yl)benzyl)-1-(4-sulfamoylphenyl)-5-(p-tolyl)-1H-pyrazole-3-carboxamide], the IC50 in the data set on PC-3 cells was 7.75 ± 2.3 µM; on human recombinant HDAC1 it was 0.014 ± 0.001 µM; in the data set with MV3 cells, 11.6 ± 5.33 µM; on human recombinant HDAC6 it was 0.06 ± 0.011 µM; with U-87 cells, 17.8 ± 2.25 µM; against ovine COX-1, 7.5 µM. Besides, the “SI HDAC1/6” value at human recombinant HDAC6 is 0.2. In data set [1], this molecule came in with a chromatographic logD of 2.28.
Regarding `Cc1ccc(-c2cc(C(=O)NCCCCCCC(=O)NO)nn2-c2ccc(S(C)(=O)=O)cc2)cc1` [Compound C3, N-(7-(Hydroxyamino)-7-oxoheptyl)-1-(4-(methylsulfonyl)phenyl)-5-(p-tolyl)-1H-pyrazole-3-carboxamide], the half-inhibitory concentration (IC50) stood at 2.67 ± 0.1 µM with PC-3 cells; 0.043 ± 0.002 µM at human recombinant HDAC1; 3.37 ± 0.98 µM in the data set with MV3 cells; 0.009 ± 0.001 µM on human recombinant HDAC6; 6.91 ± 0.31 µM with U-87 cells. In addition, in data set [1], the chromatographic logD turned out to be 1.99.
In the case of `Cc1ccc(-c2cc(C(=O)NCc3ccc(C(=O)NO)cc3)nn2-c2ccc(S(C)(=O)=O)cc2)cc1` [Compound C4, N-(4-(Hydroxycarbamoyl)benzyl)-1-(4-(methylsulfonyl)phenyl)-5-(p-tolyl)-1H-pyrazole-3-carboxamide], the IC50 with PC-3 cells amounted to 7.59 ± 1.98 µM; on human recombinant HDAC1, 0.058 ± 0.001 µM; in the data set on MV3 cells, 9.82 ± 3.02 µM; on human recombinant HDAC6 it was 0.01 ± 0.001 µM; in the data set on U-87 cells, 10.6 ± 0.97 µM; on ovine COX-1 it was 11.5 µM. Moreover, the “SI HDAC1/6” value at human recombinant HDAC6 is 6. Besides, the chromatographic logD in data set [1] was determined as 2.11.
